The target of test [1] is T1, human TREX2 (residues M44-A279) (Homo sapiens, UniProt Q9BQ50).
T1 construct: human TREX2 (residues M44-A279, expressed in E. coli); made in house; host or cells: E. coli
T1 sequence (Q9BQ50 44-279 isoform Q9BQ50-1): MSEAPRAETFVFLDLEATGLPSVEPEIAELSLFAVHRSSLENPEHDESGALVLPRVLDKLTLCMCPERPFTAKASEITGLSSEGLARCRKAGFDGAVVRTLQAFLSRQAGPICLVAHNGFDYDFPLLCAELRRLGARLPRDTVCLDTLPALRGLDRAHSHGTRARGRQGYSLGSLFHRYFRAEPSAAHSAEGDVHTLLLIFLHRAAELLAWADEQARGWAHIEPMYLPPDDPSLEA
Description: hTREX2 Biochemical Assay (fluorescence, dsDNA substrate degradation). Particulars: biochemical selectivity for hTREX1 vs hTREX2. Summed up: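 Fluorogenic dsDNA degradation read at 615 nm (570 nm excitation) after EDTA quench. Final 60 nM substrate, 50 pM His-Tev-tagged enzyme, 5 mM MgCl2, pH 7.4, 1.0% DMSO; 4 h compound–enzyme preincubation then 18 h reaction, both 25 °C; 10-point titration.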

The next test has as its target T2, full length human TREX1 (Homo sapiens, UniProt Q9NSU2).
T2 construct: N-terminally His-Tev tagged full length human TREX1; made in house; host or cells: E. coli
T2 sequence (Q9NSU2 1-314): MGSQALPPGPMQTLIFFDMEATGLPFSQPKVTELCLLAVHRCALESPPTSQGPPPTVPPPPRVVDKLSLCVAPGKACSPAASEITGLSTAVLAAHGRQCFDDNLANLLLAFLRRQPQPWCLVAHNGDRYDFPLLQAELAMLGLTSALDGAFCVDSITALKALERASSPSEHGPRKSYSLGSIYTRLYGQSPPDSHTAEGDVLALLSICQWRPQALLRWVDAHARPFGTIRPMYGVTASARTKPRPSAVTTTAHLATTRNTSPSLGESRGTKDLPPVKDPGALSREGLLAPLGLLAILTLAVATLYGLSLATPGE
Description: hTREX1 Biochemical Assay (fluorescence, dsDNA substrate degradation). Particulars: biochemical, read-out: hTREX1 IC50. Summed up:
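Fluorescence rises as enzyme degrades a quenched TEX615-labelled dsDNA substrate (60 nM) in 50 mM Tris, 150 mM NaCl, 5 mM MgCl2, pH 7.4. Full-length His-Tev-tagged human TREX1, 4 pM, sits with compound 4 hours at 25° C before substrate; reaction 18 hours, stopped with EDTA.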

A further test concerns the target T3, full length mouse TREX1 (Mus musculus, UniProt Q91XB0).
T3 construct: N-terminally His-Tev tagged full length mouse TREX1; made in house; host or cells: E. coli
T3 sequence (Q91XB0 1-314): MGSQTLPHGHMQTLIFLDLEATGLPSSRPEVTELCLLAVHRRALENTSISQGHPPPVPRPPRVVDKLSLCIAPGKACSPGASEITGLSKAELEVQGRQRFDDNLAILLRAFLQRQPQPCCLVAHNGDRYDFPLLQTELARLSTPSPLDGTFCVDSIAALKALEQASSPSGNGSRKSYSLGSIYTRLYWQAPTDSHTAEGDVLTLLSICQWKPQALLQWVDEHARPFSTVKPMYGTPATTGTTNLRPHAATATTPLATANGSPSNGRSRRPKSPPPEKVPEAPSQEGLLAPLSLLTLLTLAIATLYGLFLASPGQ
Description: mTREX1 Biochemical Assay (fluorescence, dsDNA substrate degradation). Particulars: biochemical, read-out: mTREX1 IC50. The procedure, abridged:
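Reaction run 18 h at 25° C. with 60 nM TEX615/quencher-labelled dsDNA and 6 pM mouse TREX1 in Tris buffer (pH 7.4, 5 mM MgCl2, 1.0% DMSO), enzyme having sat 4 h with compound across 10 concentrations. EDTA quench; substrate degradation measured as fluorescence increase.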

Consider `Cc1cnn(C(c2ccccc2Cl)C(C)c2nc(C(=O)Nc3cnoc3)c(O)c(=O)n2C)c1` (single isomer, unassigned) [Example 133 D1E1], for which the “hTREX1 vs hTREX2 selectivity” value in test [1] is “A (A = <25 fold selective for hTREX1)”. Besides, the concentration for half-maximal inhibition (IC50) on full length human TREX1 and at full length mouse TREX1 was more than 0.01 µM in each case.

For the molecule `CCc1cnn(C(c2ccccc2Cl)C(C)c2nc(C(=O)Nc3cnoc3)c(O)c(=O)n2C)c1` (single isomer, unassigned) [Example 134 D1E2], the “hTREX1 vs hTREX2 selectivity” value in test [1] was “A (A = <25 fold selective for hTREX1)”. For the same molecule, the IC50 at full length human TREX1 and at full length mouse TREX1 was more than 0.01 µM each time.

As for `CC(C)c1cnn(C(c2ccccc2Cl)C(C)c2nc(C(=O)Nc3cnoc3)c(O)c(=O)n2C)c1` (single isomer, unassigned) [Example 135 D1E2], the “hTREX1 vs hTREX2 selectivity” value in test [1] is “A (A = <25 fold selective for hTREX1)”. Moreover, the IC50 at full length human TREX1 and at full length mouse TREX1 was more than 0.01 µM throughout.

On to `Cc1cc(C)n(C(c2ccccc2Cl)C(C)c2nc(C(=O)Nc3cnoc3)c(O)c(=O)n2C)n1` (single isomer, unassigned) [Example 136 D1E1], for which the “hTREX1 vs hTREX2 selectivity” value in test [1] was “A (A = <25 fold selective for hTREX1)”. Moreover, the IC50 on full length human TREX1 and on full length mouse TREX1 was more than 0.01 µM each time.

For the molecule `Cc1cc(C)n(C(c2ccccc2C#N)C(C)c2nc(C(=O)Nc3cnoc3)c(O)c(=O)n2C)n1` (single isomer, unassigned) [Example 137 D1E2], in test [1], the “hTREX1 vs hTREX2 selectivity” value was “A (A = <25 fold selective for hTREX1)”. Moreover, the IC50 on full length human TREX1 and on full length mouse TREX1 was more than 0.01 µM each time.

`Cc1ccnn1C(c1ccccc1C#N)C(C)c1nc(C(=O)Nc2cnoc2)c(O)c(=O)n1C` (single isomer, unassigned) [Example 138 D1E2]: the “hTREX1 vs hTREX2 selectivity” value in test [1] is recorded as “A (A = <25 fold selective for hTREX1)”. Moreover, the IC50 at full length human TREX1 and on full length mouse TREX1 was more than 0.01 µM in each case.

In the case of `CC(c1nc(C(=O)Nc2cnoc2)c(O)c(=O)n1C)C(c1ccccc1Cl)n1cc(C(F)(F)F)cn1` (single isomer, unassigned) [Example 139 D1E2], in test [1], the “hTREX1 vs hTREX2 selectivity” value is listed as “A (A = <25 fold selective for hTREX1)”. The IC50 on full length human TREX1 and at full length mouse TREX1 was more than 0.01 µM each time.

Consider `CC(c1nc(C(=O)Nc2cnoc2)c(O)c(=O)n1C)C(c1ccccc1Cl)n1nccc1C#N` (single isomer, unassigned) [Example 140 D1E2], for which the “hTREX1 vs hTREX2 selectivity” value in test [1] is listed as “A (A = <25 fold selective for hTREX1)”. Further, the half-inhibitory concentration (IC50) on full length human TREX1 and at full length mouse TREX1 was more than 0.01 µM each time.

In the case of `CC(c1nc(C(=O)Nc2cnoc2)c(O)c(=O)n1C)C(c1ccccc1Cl)n1cc2ccccc2n1` (single isomer, unassigned) [Example 141 D1E2], in test [1], the “hTREX1 vs hTREX2 selectivity” value is recorded as “A (A = <25 fold selective for hTREX1)”. Also, the IC50 on full length human TREX1 and at full length mouse TREX1 was more than 0.01 µM each time.

Consider `Cc1cn(C(c2ccccc2Cl)C(C)c2nc(C(=O)Nc3cnoc3)c(O)c(=O)n2C)cn1` (single isomer, unassigned) [Example 142 D1E1], for which the “hTREX1 vs hTREX2 selectivity” value in test [1] was “A (A = <25 fold selective for hTREX1)”. For the same molecule, the concentration for half-maximal inhibition (IC50) on full length human TREX1 and on full length mouse TREX1 was more than 0.01 µM each time.

As for `CC(c1nc(C(=O)Nc2cnoc2)c(O)c(=O)n1C)C(c1ccccc1Cl)n1cnc2ccccc21` (single isomer, unassigned) [Example 143 D1E2], the “hTREX1 vs hTREX2 selectivity” value in test [1] is “A (A = <25 fold selective for hTREX1)”. Besides, the IC50 on full length human TREX1 and on full length mouse TREX1 was more than 0.01 µM in each case.

With `Cc1cnn(C(c2cc(F)ccc2Cl)C(C)c2nc(C(=O)Nc3cnoc3)c(O)c(=O)n2C)c1` (single isomer, unassigned) [Example 144 D1E1], the “hTREX1 vs hTREX2 selectivity” value in test [1] is “A (A = <25 fold selective for hTREX1)”. The half-inhibitory concentration (IC50) on full length human TREX1 and on full length mouse TREX1 was more than 0.01 µM each time.

`Cc1ccnn1C(c1cc(F)ccc1Cl)C(C)c1nc(C(=O)Nc2cnoc2)c(O)c(=O)n1C` (single isomer, unassigned) [Example 145 D1E2]: the “hTREX1 vs hTREX2 selectivity” value in test [1] is “A (A = <25 fold selective for hTREX1)”. The IC50 on full length human TREX1 and on full length mouse TREX1 was more than 0.01 µM in each case.

As for `Cc1ccn(C(c2cc(F)ccc2Cl)C(C)c2nc(C(=O)Nc3cnoc3)c(O)c(=O)n2C)n1` (single isomer, unassigned) [Example 146 D1E2], in test [1], the “hTREX1 vs hTREX2 selectivity” value is given as “A (A = <25 fold selective for hTREX1)”. The concentration for half-maximal inhibition (IC50) on full length human TREX1 and on full length mouse TREX1 was more than 0.01 µM each time.

Take `CC(c1nc(C(=O)Nc2cnoc2)c(O)c(=O)n1C)C(c1ccccc1Cl)n1nccc1C(N)=O` (single isomer, unassigned) [Example 147 D1E2]: the “hTREX1 vs hTREX2 selectivity” value in test [1] is reported as “A (A = <25 fold selective for hTREX1)”. Further, the 50% inhibitory concentration (IC50) on full length human TREX1 and on full length mouse TREX1 was more than 0.01 µM each time.

`CCn1c(C(C)C(c2cnn(C)c2)c2ccccc2C#N)nc(C(=O)Nc2cnoc2)c(O)c1=O` (single isomer, unassigned) [Example 149 D1E1]: in test [1], the “hTREX1 vs hTREX2 selectivity” value is given as “A (A = <25 fold selective for hTREX1)”. Moreover, the concentration for half-maximal inhibition (IC50) on full length human TREX1 and at full length mouse TREX1 was more than 0.01 µM in each case.

Regarding `CCn1c(C(C)C(c2cnn(C)c2)c2ccccc2C#N)nc(C(=O)Nc2cnoc2)c(O)c1=O` (single isomer, unassigned) [Example 149 D2E1], in test [1], the “hTREX1 vs hTREX2 selectivity” value was “A (A = <25 fold selective for hTREX1)”. For the same molecule, the IC50 on full length human TREX1 and at full length mouse TREX1 was more than 0.01 µM in each case.

`CCn1c(C(C)C(c2cnn(C)c2)c2ccccc2C#N)nc(C(=O)Nc2cnoc2)c(O)c1=O` (single isomer, unassigned) [Example 149 D2E2]: the “hTREX1 vs hTREX2 selectivity” value in test [1] is “B (B = 25 to 50-fold selective for hTREX1)”. For the same molecule, the 50% inhibitory concentration (IC50) on full length human TREX1 and at full length mouse TREX1 was more than 0.01 µM in each case.

As for `CC(c1nc(C(=O)Nc2cnoc2)c(O)c(=O)n1C)C(c1cnn(C(F)(F)F)c1)c1ccccc1C#N` (single isomer, unassigned) [Example 151 D1E2], the “hTREX1 vs hTREX2 selectivity” value in test [1] is on record as “A (A = <25 fold selective for hTREX1)”. The 50% inhibitory concentration (IC50) on full length human TREX1 and on full length mouse TREX1 was more than 0.01 µM each time.

Consider `CC(c1nc(C(=O)Nc2cnoc2)c(O)c(=O)n1C)C(c1ccccc1Cl)c1nncn1C` (single isomer, unassigned) [Example 152 D1E2], for which the “hTREX1 vs hTREX2 selectivity” value in test [1] is given as “A (A = <25 fold selective for hTREX1)”. Also, the 50% inhibitory concentration (IC50) at full length human TREX1 and at full length mouse TREX1 was more than 0.01 µM each time.

For the molecule `CC(c1nc(C(=O)Nc2cnoc2)c(O)c(=O)n1C)C(c1ccccc1Cl)c1nncn1C` (single isomer, unassigned) [Example 152 D2E1], the “hTREX1 vs hTREX2 selectivity” value in test [1] is listed as “B (B = 25 to 50-fold selective for hTREX1)”. Moreover, the IC50 at full length human TREX1 and at full length mouse TREX1 was more than 0.01 µM each time.

In the case of `CC(c1nc(C(=O)Nc2cnoc2)c(O)c(=O)n1C)C(c1ccccc1Cl)c1nncn1C` (single isomer, unassigned) [Example 152 D2E2], in test [1], the “hTREX1 vs hTREX2 selectivity” value is given as “A (A = <25 fold selective for hTREX1)”. Moreover, the concentration for half-maximal inhibition (IC50) on full length human TREX1 and on full length mouse TREX1 was more than 0.01 µM each time.

As to `CC(=O)N(C)c1nn(C)cc1C(c1ccccc1C#N)C(C)c1nc(C(=O)Nc2cnoc2)c(O)c(=O)n1C` (single isomer, unassigned) [Example 153 D1E2], in test [1], the “hTREX1 vs hTREX2 selectivity” value is on record as “A (A = <25 fold selective for hTREX1)”. Also, the half-inhibitory concentration (IC50) on full length human TREX1 and on full length mouse TREX1 was more than 0.01 µM in each case.

These data come from patent US20240246946A1, “MODULATORS OF TREX1” (Constellation Pharmaceuticals, Inc., priority 2021, published 2024).
